Data taken from publication PMC5591244, “Novel selective, potent naphthyl TRPM8 antagonists identified through a combined ligand- and structure-based virtual screening approach” (Scientific Reports, 2017).
“Also recorded” adds a separate entry of the source.

Key:
[1] = tested on: rat bladder (rhythmic bladder contraction); assay: Isovolumetric bladder rat model; assay type: in vivo
Method: To assess the activity of compound 1 in preclinical models of painful urologic syndromes as OBS we used an isovolumetric rat bladder animal model. A preliminary PK/ADMET study was conducted to assess the behaviour of compound 1 in vivo (Table S3).
Female Wistar rats (190–250 g) obtained from Charles River Laboratories were housed according to animal welfare guidelines. Rats were housed in a specific-pathogen-free environment under strictly controlled light cycle conditions, and food and water were provided ad libitum. All experimental protocols were carried out by Urosphere in accordance with the European Community Council Directive 86/609/EEC. They were performed in accordance with French legislation concerning the protection of laboratory animals and they were approved by French Ministry for Agriculture and Fisheries which provided a currently valid license for experiments on vertebrate animals to Dr. Philippe Lluel.
For intravenous administration, compound 1 was diluted in vehicle (10% of 2:1 solutol:NMP, 16% buffer, and 74% H2O) according to body weight to obtain doses of 10 mg/kg. For intravesical administration, compound 1 was diluted at a concentration of 7.56 mg/ml in a solution of 7% 2:1 solutol:NMP, […]. Eight rats were used for the control group and eight were used for the treated group.
Rats were anesthetized with urethane (1 g/kg, i.p.), given as a divided dose of 80% initially and 20% 15 min later. After abdominal incision, the ureters were ligated and sectioned. A catheter was placed into the bladder through the urethra. Then, the urethra was ligated at the level of the urinary meatus. For cystometric experiments with intravenous compound 1 administration a bladder catheter was connected via a T-tube to a strain gauge, which was used to measure the intravesical pressure. Isovolumetric bladder contractions were induced by stepwise injections of physiological saline at room temperature (100 μl every 5 min) until stable RBC occurred. After stabilization and a control period of at least 30 min, characterized by stable and reproducible bladder contractions (basal values), the test substance or vehicle was administered by intravenous infusion (1 mL within 5 min). The effects of compound 1 on micturition frequency (MF) (peaks/30 min), time of inhibition, and threshold volume (ml) (volume inducing RBC) were analyzed. The drug effects were evaluated from the end of the administration up to 1 hour after administration. For intravesical administration, compounds were administered intravesically 3 × 100 μl every 5 min. Then, the bladder was filled with 100 μl of saline every 5 min until the occurrence of rhythmic bladder contraction (RBC) with a maximal volume of 3 mL. […]

TRPM8 N799A = target: T1, TRPM8 N799A (Homo sapiens, UniProt Q7Z2W7, N799A); assay: Calcium mobilization on transiently transfected TRPM8 N799A mutant; assay type: cell-based; settings: Cooling agent 10 at EC80, N799A; read-out: pIC50, inhibition of Cooling agent 10 activation, N799A (converted)
T1 construct: expressed in transfected cells; host or cells: HEK-293, transient (Lipofectamine 2000)
T1 sequence (Q7Z2W7 whole entry N799A): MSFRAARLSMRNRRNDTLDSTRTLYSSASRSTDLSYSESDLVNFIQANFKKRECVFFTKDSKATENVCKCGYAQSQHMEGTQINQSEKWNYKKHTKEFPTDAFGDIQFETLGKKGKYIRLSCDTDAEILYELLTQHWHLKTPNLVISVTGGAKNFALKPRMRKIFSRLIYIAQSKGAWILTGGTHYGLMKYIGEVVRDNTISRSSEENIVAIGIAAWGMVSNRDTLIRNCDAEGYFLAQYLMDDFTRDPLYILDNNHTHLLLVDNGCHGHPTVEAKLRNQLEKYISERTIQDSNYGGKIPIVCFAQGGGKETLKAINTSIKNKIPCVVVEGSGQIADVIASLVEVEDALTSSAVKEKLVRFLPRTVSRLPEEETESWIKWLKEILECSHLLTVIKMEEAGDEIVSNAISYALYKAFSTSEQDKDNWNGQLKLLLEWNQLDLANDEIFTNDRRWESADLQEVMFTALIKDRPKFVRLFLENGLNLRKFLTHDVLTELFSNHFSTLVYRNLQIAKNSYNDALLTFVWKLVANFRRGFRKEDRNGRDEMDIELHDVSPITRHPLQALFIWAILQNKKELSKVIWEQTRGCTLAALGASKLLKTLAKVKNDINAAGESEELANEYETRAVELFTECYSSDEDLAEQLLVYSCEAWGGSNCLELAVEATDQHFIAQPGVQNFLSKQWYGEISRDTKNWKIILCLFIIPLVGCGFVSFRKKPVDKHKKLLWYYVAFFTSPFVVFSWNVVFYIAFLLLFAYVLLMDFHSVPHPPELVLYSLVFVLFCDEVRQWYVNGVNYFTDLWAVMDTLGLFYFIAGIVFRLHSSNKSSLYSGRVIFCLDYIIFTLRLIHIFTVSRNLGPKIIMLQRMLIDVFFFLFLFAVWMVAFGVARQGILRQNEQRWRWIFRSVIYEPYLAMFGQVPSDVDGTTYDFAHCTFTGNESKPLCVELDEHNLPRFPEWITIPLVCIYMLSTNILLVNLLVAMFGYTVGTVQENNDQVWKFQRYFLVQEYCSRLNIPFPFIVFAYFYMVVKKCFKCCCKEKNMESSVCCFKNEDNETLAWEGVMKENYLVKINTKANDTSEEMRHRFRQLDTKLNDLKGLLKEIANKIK
Description: Single point mutations were introduced in the hTRPM8-coding sequence, and the mutated TRPM8 was cloned as N-terminal c-myc tagged version into the pcDNA3 expression vector. This was done in that way that the single variations could be easily swapped from the myc-tagged expression construct into the non-tagged TRPM8 wild type expression construct.
The list of the variants is the following: variant 1, t2233g, a2234c (=Y745A); variant 2, a2236g, t2237c (=I746A); variant 3, a2395g, a2396c (=N799A) and variant 4, a2405c (D802A). The cloning project comprised three steps. First of all, a unique XhoI restriction site was inserted by site-directed mutagenesis (SDM) using DNA of the pcDNA3_TRPM8 construct as template. The 0.6 kb DNA fragment between the unique 5′ XhoI (introduced) and 3′ BamHI (already present) restriction sites comprised all positions of the four single point mutations and could be later used for their insertion as well as swapping between myc-tagged and non-tagged TRPM8 versions. In a second step, the c-myc tag sequence was introduced embedded within the TRPM8 coding sequence by PCR primers in two partially overlapping PCRs that were then joined by bridge PCR with the external 5′KpnI and internal 3′EcoRI primers and in the last step the point mutations 1 to 4 were inserted into pcDNA3_c-myc-TRPM8 by exchanging the wild type 5′XhoI-3′BamHI fragment (0.6 kb) with each of the corresponding variation fragment derived from synthetic DNA (provided by GeneArt, ThermoFisher Scientific).The myc-tagged constructs were transiently transfected in HEK-293 cells with Lipofectamine 2000 (Invitrogen) according to the manufacturer’s protocol. The pcDNA vectors containing the wt myc-tagged TRPM8 gene and the empty pcDNA3 (mock) were separately transfected into HEK-293 cells as controls. Cells were transfected and seeded on the same day at 17,500 cells/well in poly-D-lysine-coated 384-well plates (MATRIX #4332-CPL). Twenty-four hours after seeding, the activity of transfected TRPM8 receptors was tested using the calcium mobilization assay as described above. The analysis was performed on the basis of ΔF/F° (normalized MAX-MIN), where ΔF is the MAX between time points 117 and 182 minus the MIN between time points TP114 and TP116, and F° is the basal signal at time point TP0. The obtained data from at least four wells (as replicates) were analyzed with GraphPad PRISM® software (version 5, GraphPad Software Inc.) to calculate the mean and standard error of the mean[58], to create sigmoidal concentration-response curves and to calculate IC50 values.

IC50 (TRPM8 N799A): 10 nM
SMILES: Clc1c(OCCNCc2ccco2)ccc2ccccc12 [Compound 1]
Threshold volume versus vehicle, intravenous ([1]; intravenous 10 mg/kg): No significant difference
Micturition frequency (MF) 0–30 min post-administration ([1]; intravenous 10 mg/kg, 0–30 min, 10 mg/kg): significantly decreased; also recorded: significantly reduced
Micturition frequency (MF) 30–60 min post-administration ([1]; intravenous 10 mg/kg, 30–60 min): no effect
Occurrence of RBC, intravesical ([1]; intravesical 2.268 mg): abolished the occurrence of RBC
